Values joined by “and” are separate entries in the source; they are usually repeats but may differ in a detail not shown here. Identical values can stand only once.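 Tested at 5 concentrations; 48 h exposure; 96-well plates; endpoints linearly interpolated, else capped at highest concentration. GI50 is the concentration that inhibits growth by half. TGI: total growth inhibition.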

Eight compounds from PubChem BioAssay (NCI) can be followed below.

Among the test systems are UACC-257 melanoma; EKVX NSCLC; 786-0 renal; SF-268 CNS; NCI-H23 lung; OVCAR-8 ovarian; SK-MEL-2 melanoma; SF-539 CNS; UACC-62 melanoma; HL-60(TB) leukemia.
What all share (assay): NCI-60 cell line screen, 48 h

As to `COc1ccc(/C=C\c2cc(OC)c(OC)c(OC)c2)c(NS(=O)(=O)c2ccc(C)cc2)c1O`, the GI50 was 17.8 µM with UACC-257 melanoma; 0.0644 µM in the assay on EKVX NSCLC; 0.129 µM in the assay on 786-0 renal; 0.226 µM in the assay with SF-268 CNS; 0.0451 µM in the assay on NCI-H23 lung; 0.0498 µM in the assay on OVCAR-8 ovarian. The GI50 is 1.45 µM in the assay on SK-MEL-2 melanoma, 0.0237 µM in the assay on SF-539 CNS, 0.0428 µM in the assay on UACC-62 melanoma and 0.0338 µM with HL-60(TB) leukemia. The TGI with UACC-257 melanoma was more than 100 µM; in the assay with EKVX NSCLC it was more than 100 µM; with 786-0 renal, 30.2 µM; in the assay on SF-268 CNS, more than 91.5 µM; with NCI-H23 lung, 49.6 µM; in the assay on OVCAR-8 ovarian, more than 100 µM. For the same compound, the TGI with SK-MEL-2 melanoma is more than 100 µM; in the assay with SF-539 CNS, 0.0641 µM; with UACC-62 melanoma, more than 100 µM; in the assay with HL-60(TB) leukemia, 2.06 µM.

Consider `O=c1[nH]c(-c2ccc(C(F)(F)F)cc2)nc2c1CSCC2`, for which the GI50 with UACC-257 melanoma was more than 65.2 µM; in the assay on EKVX NSCLC it was more than 42.1 µM; in the assay on 786-0 renal it was 35.3 µM; in the assay on SF-268 CNS it was 53.2 µM; with NCI-H23 lung it was 41.9 µM; with OVCAR-8 ovarian, 26.3 µM. For the same compound, the GI50 in the assay with SK-MEL-2 melanoma is 35.6 µM; in the assay with SF-539 CNS it was more than 100 µM; in the assay on UACC-62 melanoma, more than 100 µM; with HL-60(TB) leukemia, more than 100 µM. Further, the TGI in the assay with UACC-257 melanoma was more than 100 µM; in the assay on EKVX NSCLC, more than 100 µM; with 786-0 renal, more than 100 µM; in the assay on SF-268 CNS, more than 100 µM; in the assay on NCI-H23 lung it was more than 100 µM; in the assay on OVCAR-8 ovarian, 99 µM. The TGI in the assay on SK-MEL-2 melanoma was more than 93.2 µM; in the assay on SF-539 CNS it was more than 100 µM; with UACC-62 melanoma it was more than 100 µM; with HL-60(TB) leukemia it was more than 100 µM.

Regarding `Cc1nc(NC(=O)N2CCC[C@H]2C(N)=O)sc1-c1ccnc(C(C)(C)C(F)(F)F)c1`, the GI50 in the assay with UACC-257 melanoma was 9.58 µM and > 10 µM; with EKVX NSCLC, 4.53 µM; in the assay with 786-0 renal, 11.1 µM and > 10 µM; in the assay with SF-268 CNS, 9.71 µM and 9.76 µM; in the assay with NCI-H23 lung it was 10.2 µM and > 10 µM; with OVCAR-8 ovarian it was 8.28 µM and > 10 µM. Also, the GI50 in the assay with SK-MEL-2 melanoma is 6.94 µM and > 10 µM; in the assay with SF-539 CNS, 3.93 µM and 4.6 µM; with UACC-62 melanoma it was 3.18 µM and 3.05 µM; in the assay with HL-60(TB) leukemia, 1.04 µM and 0.289 µM. The TGI is 45 µM and > 10 µM with UACC-257 melanoma; more than 10 µM in the assay on EKVX NSCLC; 64.1 µM and > 10 µM in the assay with 786-0 renal; more than 86.5 µM in the assay with SF-268 CNS; 61.9 µM and > 10 µM with NCI-H23 lung; 76.2 µM and > 10 µM in the assay on OVCAR-8 ovarian. Further, the TGI with SK-MEL-2 melanoma was 24.1 µM and > 10 µM; in the assay on SF-539 CNS, 24.3 µM and > 10 µM; in the assay on UACC-62 melanoma it was 18.7 µM and > 10 µM; with HL-60(TB) leukemia it was 37.3 µM and > 10 µM.

For `c1ccc(-c2nc(N3CCNCC3)c3nc(-c4ccccc4)oc3n2)cc1`, the GI50 is 1.93 µM in the assay with UACC-257 melanoma; 1.78 µM in the assay with EKVX NSCLC; 1.63 µM in the assay on 786-0 renal; 1.73 µM with SF-268 CNS; 1.76 µM with NCI-H23 lung; 1.91 µM in the assay with SK-MEL-2 melanoma. Further, the GI50 is 1.72 µM in the assay with SF-539 CNS, 1.78 µM with UACC-62 melanoma and 1.89 µM in the assay on HL-60(TB) leukemia. The TGI is 3.81 µM with UACC-257 melanoma; 3.39 µM with EKVX NSCLC; 3.46 µM in the assay on 786-0 renal; 3.46 µM with SF-268 CNS; 3.32 µM in the assay on NCI-H23 lung; 3.74 µM in the assay on SK-MEL-2 melanoma. Besides, the TGI in the assay on SF-539 CNS was determined as 3.13 µM; in the assay on UACC-62 melanoma, 3.23 µM; with HL-60(TB) leukemia, 4.08 µM.

For the compound `C/C(=N\Nc1ccc([N+](=O)[O-])cc1)C(=O)N(C)Nc1ccccc1`, the TGI in the assay with UACC-257 melanoma, in the assay with EKVX NSCLC, in the assay on 786-0 renal, in the assay with NCI-H23 lung, with OVCAR-8 ovarian and with SK-MEL-2 melanoma was more than 100 µM in each case. The TGI in the assay with SF-539 CNS, in the assay with UACC-62 melanoma and with HL-60(TB) leukemia was more than 100 µM throughout.

As for `COc1cc(C2C(C(=O)Nc3ccccc3)=C(C)NC(C)=C2C(=O)Nc2ccccc2)ccc1O`, the TGI is more than 100 µM in the assay on UACC-257 melanoma; more than 100 µM in the assay with EKVX NSCLC; more than 100 µM in the assay on 786-0 renal; more than 100 µM in the assay on SF-268 CNS; more than 100 µM in the assay on NCI-H23 lung; 85.1 µM with OVCAR-8 ovarian. The TGI was determined as 76.8 µM in the assay on SK-MEL-2 melanoma, 52.9 µM with SF-539 CNS and 54.2 µM with HL-60(TB) leukemia.

Consider `O=Cc1coc2ccccc2c1=O`, for which the TGI in the assay on UACC-257 melanoma is 46.7 µM; in the assay with EKVX NSCLC it was 49.9 µM; in the assay on 786-0 renal, 37.9 µM; with SF-268 CNS, 56.7 µM; with NCI-H23 lung it was 70.7 µM; with OVCAR-8 ovarian it was 35.3 µM. Besides, the TGI was 31.9 µM with SF-539 CNS, 52.8 µM with UACC-62 melanoma and 42.3 µM with HL-60(TB) leukemia.

Consider `COc1cccc(C2C(C(=O)Nc3cc(=O)n(C)c(=O)n3C)=C(C)NC(C)=C2C(=O)Nc2cc(=O)n(C)c(=O)n2C)c1O`, for which the TGI in the assay with UACC-257 melanoma, in the assay on EKVX NSCLC, in the assay on 786-0 renal, in the assay on SF-268 CNS, in the assay on NCI-H23 lung and in the assay on OVCAR-8 ovarian was more than 100 µM each time. For the same compound, the TGI in the assay with SK-MEL-2 melanoma, with SF-539 CNS and with HL-60(TB) leukemia was more than 100 µM in each case.
